In patent US9409905B2, “Antibacterial compounds and methods for use” (PTC THERAPEUTICS, INC., priority 2011, dated 2016):
≈ marks a conversion by molar mass, not a printed value.

Legend:
[1] = test system: Escherichia coli (E. coli) BAS849; assay: Antibacterial activity, microbroth dilution MIC (Table 1); type: cell-based; conditions: microbroth dilution, super sensitive Gram-negative E. coli BAS849, read-out: MIC, BAS849
How it was run: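 Using broth microdilution, MIC endpoints (μg/mL) mark where visible growth no longer appears; the panel spans sensitive and control Gram-negative strains plus a Gram-positive strain.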

[2] = test system: Staphylococcus aureus (S. aureus) 29213; assay: as above; type: cell-based; conditions: microbroth dilution, Gram-positive S. aureus 29213, read-out: MIC, 29213
How it was run: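 Each strain is exposed to test compound in a microbroth dilution series; visible growth is scored macroscopically, and the lowest growth-free concentration is recorded as MIC in μg/mL.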

E. coli 25922 = assay: as above; type: cell-based, Escherichia coli; conditions: Escherichia coli; microbroth dilution; control Gram-negative E. coli 25922 strain; read-out: MIC, 25922
How it was run: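 Broth microdilution against S. aureus 29213, E. coli 25922 and hypersensitive E. coli BAS849. MIC in μg/mL is the lowest drug concentration preventing macroscopically visible growth under test conditions.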

[3] = test system: Klebsiella pneumoniae (K. pneumoniae) 35657; assay: Antibacterial activity, MIC (Table 4); type: cell-based; conditions: K. pneumoniae 35657, read-out: MIC, 35657
How it was run: (§1)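 Broth microdilution; MIC (μg/mL) = lowest concentration with no macroscopically visible growth. Resistant strains: multi-drug resistant clinical isolates.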

[4] = test system: Acinetobacter baumannii (A. baumannii) BAA747; assay: Antibacterial activity, MIC (Table 4); type: cell-based; conditions: A. baumannii BAA747, read-out: MIC, BAA747
How it was run: as §1

[5] = test system: Pseudomonas aeruginosa (P. aeruginosa) 27853; assay: Antibacterial activity, MIC (Table 5); type: cell-based; conditions: P. aeruginosa 27853, read-out: MIC, 27853
How it was run: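 Using a microbroth dilution format, the minimum inhibitory concentration was recorded as the lowest tested concentration that stopped visible bacterial growth, expressed in μg/mL.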

A. baumannii MXX2240 = assay: Antibacterial activity, MIC, resistant strain (Table 4); type: cell-based; conditions: Acinetobacter baumannii, MXX2240; resistant A. baumannii MMX2240, multi-drug resistant clinical isolate; read-out: MIC, MMX2240
How it was run: as §1

K. pneumoniae MXX1232 = assay: as above; type: cell-based; conditions: Klebsiella pneumoniae, MXX1232; resistant K. pneumoniae MMX1232, multi-drug resistant clinical isolate; read-out: MIC, MMX1232
How it was run: as §1

E. coli LZ3111 = assay: Antibacterial activity, MIC, quinolone resistant strain (Table 2); type: cell-based; conditions: Escherichia coli, LZ3111, read-out: MIC LZ3111
How it was run: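 Growth inhibition assessed by serial drug dilution in broth; endpoint was absence of macroscopically visible growth, reported as MIC, μg/mL.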

Compound	MIC [1]	MIC [2]	MIC (E. coli 25922)	MIC [3]	MIC [4]	MIC [5]	MIC (A. baumannii MXX2240)	MIC (K. pneumoniae MXX1232)	MIC (E. coli LZ3111)
CCNCc1cc2ccc(-c3[nH]c(=O)c(C(=O)O)c(O)c3C)cc2[nH]1.Cl [Cpd 444, 6-(2-((ethylamino)methyl)-1H-indol-6-yl)-4-hydroxy-5-methyl-2-oxo-1,2-dihydropyridine-3-carboxylic acid hydrochloride]	12.5 to 150 µg/mL	12.5 to 150 µg/mL	12.5 to 150 µg/mL	12.5 to 150 µg/mL	12.5 to 150 µg/mL	12.5 to 150 µg/mL	12.5 to 150 µg/mL	12.5 to 150 µg/mL	12.5 to 150 µg/mL
CCc1ccc2[nH]c(-c3[nH]c(=O)c(C(=O)O)c(O)c3C)cc2c1 [Cpd 386, 6-(5-ethyl-1H-indol-2-yl)-4-hydroxy-5-methyl-2-oxo-1,2-dihydropyridine-3-carboxylic acid]	3.5 to 12.5 µg/mL (≈ 11.2 to 40 µM)	12.5 to 150 µg/mL (≈ 40 to 480 µM)	12.5 to 150 µg/mL (≈ 40 to 480 µM)	12.5 to 150 µg/mL (≈ 40 to 480 µM)	12.5 to 150 µg/mL (≈ 40 to 480 µM)	12.5 to 150 µg/mL (≈ 40 to 480 µM)	12.5 to 150 µg/mL (≈ 40 to 480 µM)	12.5 to 150 µg/mL (≈ 40 to 480 µM)	12.5 to 150 µg/mL (≈ 40 to 480 µM)
COCCNCc1cc2cc(-c3[nH]c(=O)c(C(=O)O)c(O)c3C)ccc2n1C [Cpd 341, 4-hydroxy-6-(2-((2-methoxyethylamino)methyl)-1-methyl-1H-indol-5-yl)-5-methyl-2-oxo-1,2-dihydropyridine-3-carboxylic acid]	< 1 µg/mL	12.5 to 150 µg/mL (≈ 32.4 to 389 µM)	3.5 to 12.5 µg/mL (≈ 9.08 to 32.4 µM)	3.5 to 12.5 µg/mL (≈ 9.08 to 32.4 µM)	3.5 to 12.5 µg/mL (≈ 9.08 to 32.4 µM)	12.5 to 150 µg/mL (≈ 32.4 to 389 µM)	1 to 3.5 µg/mL (≈ 2.59 to 9.08 µM)	12.5 to 150 µg/mL (≈ 32.4 to 389 µM)	< 1 µg/mL
CCc1cc(C(=O)O)c(=O)[nH]c1-c1ccc2c(ccn2C)c1OCc1ccccc1 [Cpd 372, 6-(4-(benzyloxy)-1-methyl-1H-indol-5-yl)-5-ethyl-2-oxo-1,2-dihydropyridine-3-carboxylic acid]	12.5 to 150 µg/mL (≈ 31.1 to 373 µM)	12.5 to 150 µg/mL (≈ 31.1 to 373 µM)	12.5 to 150 µg/mL (≈ 31.1 to 373 µM)	12.5 to 150 µg/mL (≈ 31.1 to 373 µM)	12.5 to 150 µg/mL (≈ 31.1 to 373 µM)	12.5 to 150 µg/mL (≈ 31.1 to 373 µM)	12.5 to 150 µg/mL (≈ 31.1 to 373 µM)	12.5 to 150 µg/mL (≈ 31.1 to 373 µM)	12.5 to 150 µg/mL (≈ 31.1 to 373 µM)
CCCN(C)C1Cc2cc3cc(-c4[nH]c(=O)c(C(=O)O)c(O)c4CC)ccc3n2C1 (stereo not drawn) [Cpd 420, 5-ethyl-4-hydroxy-6-(2-(methyl(propyl)amino)-2,3-dihydro-1H-pyrrolo[1,2-a]indol-7-yl)-2-oxo-1,2-dihydropyridine-3-carboxylic acid]	< 1 µg/mL	3.5 to 12.5 µg/mL (≈ 8.55 to 30.5 µM)	3.5 to 12.5 µg/mL (≈ 8.55 to 30.5 µM)	12.5 to 150 µg/mL (≈ 30.5 to 366 µM)	12.5 to 150 µg/mL (≈ 30.5 to 366 µM)	12.5 to 150 µg/mL (≈ 30.5 to 366 µM)	3.5 to 12.5 µg/mL (≈ 8.55 to 30.5 µM)	12.5 to 150 µg/mL (≈ 30.5 to 366 µM)	3.5 to 12.5 µg/mL (≈ 8.55 to 30.5 µM)
Cc1c(-c2ccc3[nH]ccc3c2)[nH]c(=O)c(C(=O)O)c1O [Cpd 426, 4-hydroxy-6-(1H-indol-5-yl)-5-methyl-2-oxo-1,2-dihydropyridine-3-carboxylic acid]	3.5 to 12.5 µg/mL (≈ 12.3 to 44 µM)	12.5 to 150 µg/mL (≈ 44 to 528 µM)	12.5 to 150 µg/mL (≈ 44 to 528 µM)	12.5 to 150 µg/mL (≈ 44 to 528 µM)	12.5 to 150 µg/mL (≈ 44 to 528 µM)	12.5 to 150 µg/mL (≈ 44 to 528 µM)	< 1 µg/mL	12.5 to 150 µg/mL (≈ 44 to 528 µM)	< 1 µg/mL
CCc1c(-c2ccc3c(ccn3C)c2OCc2ccccc2)[nH]c(=O)c(C(=O)O)c1O [Cpd 373, 6-(4-(benzyloxy)-1-methyl-1H-indol-5-yl)-5-ethyl-4-hydroxy-2-oxo-1,2-dihydropyridine-3-carboxylic acid]	3.5 to 12.5 µg/mL (≈ 8.36 to 29.9 µM)	1 to 3.5 µg/mL (≈ 2.39 to 8.36 µM)	12.5 to 150 µg/mL (≈ 29.9 to 358 µM)	12.5 to 150 µg/mL (≈ 29.9 to 358 µM)	12.5 to 150 µg/mL (≈ 29.9 to 358 µM)	12.5 to 150 µg/mL (≈ 29.9 to 358 µM)	12.5 to 150 µg/mL (≈ 29.9 to 358 µM)	12.5 to 150 µg/mL (≈ 29.9 to 358 µM)	12.5 to 150 µg/mL (≈ 29.9 to 358 µM)
CCc1c(-c2ccc3c(c2)cc2n3CC(NC)CC2)[nH]c(=O)c(C(=O)O)c1O.Cl (stereo not drawn) [Cpd 414, 5-ethyl-4-hydroxy-6-(7-(methylamino)-6,7,8,9-tetrahydropyrido[1,2-a]indol-2-yl)-2-oxo-1,2-dihydropyridine-3-carboxylic acid hydrochloride]	< 1 µg/mL	12.5 to 150 µg/mL	1 to 3.5 µg/mL	< 1 µg/mL	3.5 to 12.5 µg/mL	12.5 to 150 µg/mL	12.5 to 150 µg/mL	12.5 to 150 µg/mL	3.5 to 12.5 µg/mL
